For assay [1], the target named is T1, Dual specificity tyrosine-phosphorylation-regulated kinase 1A (Homo sapiens, UniProt Q13627). Description: Inhibition of DYRK1A (unknown origin) using Ulight-MBP as substrate and ATP as co-substrate incubated for 40 mins and measured after 1 hr by TR-FRET assay. Background: Time-resolved FRET reads energy transfer from a long-lived donor to a nearby acceptor.

Assay [2] relates to RS4-11. Description: Antitumor activity against human RS4-11 cells xenografted in BALB/c nu/nu mouse assessed as reduction in DYRK1A autophosphorylation of S520 residue at 6.25 mg/kg, po measured after 2 hrs by western blotting analysis relative to control. Set-up: scale not given: the % may be the effect or the level left. Format: functional. (In general: Xenograft models place foreign cells or tissue in a host animal.)

Assay [3] has as its system RS4-11. Description: Antitumor activity against human RS4-11 cells xenografted in BALB/c nu/nu mouse reduction in DYRK1A autophosphorylation of S520 residue at 6.25 mg/kg, po measured after 6 hrs by western blotting analysis relative to control. Format: functional. Set-up: scale not given: the % may be the effect or the level left.
The target of assay [4] is T2, Dual specificity tyrosine-phosphorylation-regulated kinase 2 (Homo sapiens, UniProt Q92630).
T2 sequence (Q92630 whole entry): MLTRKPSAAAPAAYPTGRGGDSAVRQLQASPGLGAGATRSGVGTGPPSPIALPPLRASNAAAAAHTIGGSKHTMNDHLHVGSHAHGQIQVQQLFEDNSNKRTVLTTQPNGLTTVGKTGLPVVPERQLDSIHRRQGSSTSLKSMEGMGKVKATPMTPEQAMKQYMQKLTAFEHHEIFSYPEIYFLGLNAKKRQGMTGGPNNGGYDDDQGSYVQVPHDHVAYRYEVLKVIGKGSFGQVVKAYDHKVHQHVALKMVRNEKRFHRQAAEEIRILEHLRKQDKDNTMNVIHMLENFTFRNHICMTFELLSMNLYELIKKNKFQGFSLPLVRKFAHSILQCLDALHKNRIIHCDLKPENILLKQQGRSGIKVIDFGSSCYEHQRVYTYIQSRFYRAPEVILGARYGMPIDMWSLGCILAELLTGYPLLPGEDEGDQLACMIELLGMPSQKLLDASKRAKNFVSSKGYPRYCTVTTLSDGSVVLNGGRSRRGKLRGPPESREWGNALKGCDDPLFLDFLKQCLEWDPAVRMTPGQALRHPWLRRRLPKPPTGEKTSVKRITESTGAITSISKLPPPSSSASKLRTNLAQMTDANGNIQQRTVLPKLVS
Nature of the assay: Inhibition of DYRK2 (unknown origin) using Ulight-MBP as substrate and ATP as co-substrate incubated for 40 mins and measured after 1 hr by TR-FRET assay.

The target in assay [5] is Cyclin-dependent kinase 9 (Homo sapiens, UniProt P50750). Description: Inhibition of CDK9 (unknown origin) using Ulight-MBP as substrate and ATP as co-substrate incubated for 40 mins and measured after 1 hr by TR-FRET assay.
Cyclin-dependent kinase 9, sequence (P50750 whole entry): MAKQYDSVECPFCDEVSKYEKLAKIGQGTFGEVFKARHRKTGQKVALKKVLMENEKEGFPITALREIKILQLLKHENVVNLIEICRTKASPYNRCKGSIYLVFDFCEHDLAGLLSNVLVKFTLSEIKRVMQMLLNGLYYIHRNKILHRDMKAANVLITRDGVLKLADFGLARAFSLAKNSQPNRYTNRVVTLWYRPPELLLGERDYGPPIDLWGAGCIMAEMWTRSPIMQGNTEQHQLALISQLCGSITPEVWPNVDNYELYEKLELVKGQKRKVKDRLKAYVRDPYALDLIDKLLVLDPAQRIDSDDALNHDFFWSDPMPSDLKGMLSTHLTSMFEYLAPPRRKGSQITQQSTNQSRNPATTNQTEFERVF
Assay [6] concerns the target T1, Dual specificity tyrosine-phosphorylation-regulated kinase 1A. Nature of the assay: Inhibition of wild type full length DYRK1A (unknown origin) in human U2OS cells assessed as reduction in pSER520 autophosphorylation incubated for 5 hrs by western blot analysis. Format: cell-based. On the technique in general: In western blotting, separated proteins are transferred to a membrane and probed.

Each structure is given as a SMILES string. A value given as a limit tells only on which side of the number the result lay.

Turning to `Nc1cc(-c2ccc3occc3c2)nc(N)n1`, 36 nM corresponded to half-maximal inhibition in assay [1] (IC50).

For `Cc1nc2ccc(-c3cc(N)nc(N)c3)nc2n1CC(F)(F)F`, the Activity is 93% with RS4-11 [2] and 95% in the assay on RS4-11 [3]. Moreover, the IC50 in assay [4] was determined as 6 nM.

`Nc1cc(-c2ccc3c(c2)OCCO3)cc(N)n1` gave an IC50 in assay [1] of 11 nM.

With `COc1ccc(-c2ccnc(C)c2)cc1`, the concentration for half-maximal inhibition (IC50) in assay [1] came to 670 nM.

In the case of `Cc1nc2ccc(-c3cc(N)nc(N)c3)nc2n1CC(F)F`, the midpoint of inhibition in assay [4], the IC50, lay at 4 nM.

`Nc1cc(-c2ccn3nccc3n2)cc(N)n1` gave a concentration for half-maximal inhibition (IC50) in assay [1] of 2 nM.

Turning to `COc1ccc(-c2ccnc(N)c2)cc1`, the 50% inhibitory concentration (IC50) in assay [1] is 126 nM.

Regarding `Cc1nc2ccc(-c3cc(N)nc(N)c3)nc2n1CCOc1ccccc1`, the Activity in the assay with RS4-11 [2] was determined as 59%; in the assay with RS4-11 [3], 25%. The compound further gave a half-maximal inhibitory concentration (IC50) in assay [4] of 9 nM.

As for `Cc1onc2ccc(-c3cc(N)nc(N)c3)cc12`, the IC50 in assay [1] was found to be 19 nM.

With `COc1ccc(-c2cc(N)nc(N)n2)cc1`, in assay [1], half-maximal inhibition (IC50) was put at 158 nM.

Take `Cc1nc2ccc(-c3cc(N)nc(N)c3)nc2n1C[C@@H](C)Oc1ccccn1`: the 50% inhibitory concentration (IC50) in assay [5] is more than 3 µM; in assay [4], 116 nM; in assay [1], 7 nM.

For `Nc1cc(-c2ccc3c(c2)CCO3)cc(N)n1`, the IC50 in assay [1] is 16 nM.

`COc1cc(-c2ccnc(N)c2)ccc1Cl` came in with a half-inhibitory concentration (IC50) in assay [1] of 218 nM.

As to `Nc1cc(-c2ccc3occc3c2)cc(N)n1`, the IC50 was 500 nM in assay [6] (read-out: IC50), 0.041 µM in assay [5] and 14 nM in assay [1].

On to `Cc1oc2ccc(-c3cc(N)nc(N)c3)cc2c1C`, for which the IC50 in assay [6] (read-out: IC50) was found to be 1650 nM; in assay [5], 8.84 µM; in assay [4], 21 nM; in assay [1], 1 nM.

As to `Nc1cc(-c2ccc3ncsc3c2)cc(N)n1`, the IC50 in assay [1] was found to be 1 nM.

In assay [1], `Cn1cnc2ccc(-c3cc(N)nc(N)c3)nc21` yielded an IC50 of 13 nM.

In the case of `Nc1cc(-c2ccc3occc3n2)cc(N)n1`, in assay [1], the IC50 was found to be 10 nM.

In assay [4], `COCCCn1c(C)nc2ccc(-c3cc(N)nc(N)c3)nc21` registered an IC50 of 5 nM.

`Cc1nc2ccc(-c3cc(N)nc(N)c3)nc2n1Cc1ccc(F)cc1`: the results for the IC50 in assay [6] (read-out: IC50) and in assay [4] were 3000 nM and 134 nM, respectively.

In assay [4], `Cc1nc2ccc(-c3cc(N)nc(N)c3)nc2n1C1CCCC1` came in with an IC50 of 1 nM.

On to `Cc1nc2ccc(-c3cc(N)nc(N)c3)nc2n1CCOc1cccc(Br)n1`, for which the results for the IC50 in assay [5] and in assay [4] were 0.289 µM and 52 nM, respectively.

With `Cc1cc2cc(-c3cc(N)nc(N)c3)ccc2o1`, the results for the half-maximal inhibitory concentration (IC50) in assay [6] (read-out: IC50), in assay [5] and in assay [1] were 1800 nM, more than 10 µM and 34 nM, respectively.

In turn, `Cc1nc2ccc(-c3cc(N)nc(N)c3)nc2n1CCCC(F)(F)F` gave an IC50 in assay [4] of 10 nM.

`Nc1cc(-c2ccc3occc(=O)c3c2)cc(N)n1` had an IC50 in assay [1] of 42 nM.

Regarding `Cc1cc(-c2ccc3occc3c2)cc(N)n1`, half-maximal inhibition in assay [1] (IC50) required 77 nM.

With `Cc1nc2ccc(-c3cc(N)nc(N)c3)nc2n1C[C@@H](C)Oc1ccccc1`, the concentration for half-maximal inhibition (IC50) in assay [6] (read-out: IC50) was 111 nM; in assay [5], more than 3 µM; in assay [4], 46 nM.

`Cc1nc2ccc(-c3cc(N)nc(N)c3)nc2n1C[C@H](C)Oc1ccccn1`: the results for the concentration for half-maximal inhibition (IC50) in assay [6] (read-out: IC50), in assay [5] and in assay [4] were more than 300 nM, more than 3 µM and 117 nM, respectively.

In assay [1], `Cn1cnc2cc(-c3cc(N)nc(N)c3)ccc21` yielded an IC50 of 14 nM.

Regarding `Cc1nc2ccc(-c3cc(N)nc(N)c3)nc2n1C[C@H](C)Oc1ccccc1`, the IC50 in assay [6] (read-out: IC50) was 73 nM; in assay [5], more than 3 µM; in assay [4] it was 22 nM; in assay [1], 8 nM.

Consider `Cc1nc2ccc(-c3cc(N)nc(N)c3)nc2n1CCOc1cccc(Cl)n1`, for which the half-maximal inhibitory concentration (IC50) was 0.222 µM in assay [5] and 33 nM in assay [4].

Consider `Cc1cc(-c2ccc(Cl)cc2)ccn1`, for which the IC50 in assay [1] is more than 10000 nM.

For `CNc1cc(-c2ccc3occc3c2)cc(N)n1`, the 50% inhibitory concentration (IC50) in assay [1] was determined as 17 nM.

`Nc1cc(-c2ccc3sccc3c2)cc(N)n1` yielded an IC50 in assay [1] of 137 nM.

`c1cc(-c2ccc3occc3c2)cc(N2CCNCC2)n1` came in with an IC50 in assay [1] of 3560 nM.

The compound `Cc1nc2ccc(-c3cc(N)nc(N)c3)nc2n1CCOc1ccccn1` showed a 50% inhibitory concentration (IC50) in assay [4] of 34 nM.

The compound `Nc1cc(-c2ccc3nccn3c2)cc(N)n1` showed an IC50 in assay [1] of 17 nM.

The compound `Nc1cc(-c2ccc3occc3c2)cc(NCCc2ccsc2)n1` displayed a 50% inhibitory concentration (IC50) in assay [1] of 189 nM.

As to `CNCC(=O)Nc1cc(-c2ccc3occc3c2)cc(N)n1`, in assay [1], the IC50 was found to be 168 nM.

On to `Cc1nc2ccc(-c3cc(N)nc(N)c3)nc2n1C(C)(C)C`, for which it took 6 nM to reach half-maximal inhibition in assay [4] (IC50).

`Nc1cc(-c2ccc3ncccc3c2)cc(N)n1` yielded a half-maximal inhibitory concentration (IC50) in assay [1] of 10 nM.

On to `Nc1cc(-c2ccc3ncoc3c2)cc(N)n1`, for which half-maximal inhibition in assay [1] (IC50) was put at 10 nM.

Regarding `Nc1cc(-c2ccc3occc3c2)ccn1`, half-maximal inhibition in assay [1] (IC50) was put at 19 nM.

Regarding `Nc1cc(-c2ccc3ocnc3c2)cc(N)n1`, the IC50 in assay [1] came out at 22 nM.

For `Nc1cc(-c2ccc3c(c2)CCO3)nc(N)n1`, half-maximal inhibition in assay [1] (IC50) required 22 nM.

As to `Nc1cc(-c2ccc3oc(Cl)cc3c2)cc(N)n1`, the 50% inhibitory concentration (IC50) result in assay [6] (u2os) is “Not Active”; in assay [5] it was 5.43 µM; in assay [1] it was 76 nM.

With `Nc1cc(-c2ccc3ncnn3c2)cc(N)n1`, the concentration for half-maximal inhibition (IC50) in assay [1] is 15 nM.

In assay [4], `Cc1nc2ccc(-c3cc(N)nc(N)c3)nc2n1CCC1CCCCC1` yielded an IC50 of 9 nM.

For `Cc1nc2ccc(-c3cc(N)nc(N)c3)nc2n1CCc1ccco1`, the IC50 in assay [4] was determined as 6 nM.

The compound `COCCCNc1cc(-c2ccc3occc3c2)cc(N)n1` registered an IC50 in assay [1] of 96 nM.

In the case of `Cc1nc2ccc(-c3cc(N)nc(N)c3)nc2n1C[C@@H](C)Oc1cccc(Br)n1`, the 50% inhibitory concentration (IC50) in assay [6] (read-out: IC50) stood at 44 nM; in assay [5], 0.467 µM; in assay [4] it was 195 nM; in assay [1], 5 nM.

In turn, `c1cc(-c2ccc3occc3c2)ccn1` returned a half-inhibitory concentration (IC50) in assay [1] of 320 nM.

Usually IC50 stands for the midpoint of a concentration-inhibition curve.

The values above are taken from ChEMBL document CHEMBL5042474, “Structure-Guided Discovery of Potent and Selective DYRK1A Inhibitors” (J Med Chem, 2021).
